Several values for one entry are separate records, joined by “and”; a condition that tells them apart may be missing. Equal values may be shown once. Read-outs that look alike come from different tables or passages of the source.
Experiments:
[1] = in vitro; conditions: human
[2] = Pharmacokinetic study in CD-1 mice (gavage, intravenous, intraperitoneal); type: in vivo; conditions: for bioavailability: read-out: F (bioavailability)
Protocol: Nine CD-1 mice, male, weighing 18-22 g, were randomly divided into 3 groups with 3 mice in each group. The test compounds were administered by gavage, intravenously and intraperitoneally according to the following schemes.
Before the test, they were fasted for 12 hours and were allowed to drink water freely, and were fed uniformly 2 h after administration.
There were 3 animals at each time point.
The solution for gavage administration was formulated with DMSO/0.5% HPMC (5/95, v/v) into the final concentration. Intravenous and intraperitoneal administration were formulated with DMSO/PEG300/EtOH/NaCl (5/40/5/50, v/v/v). Retention samples of the dosing solution (50 μL of the drug solution was taken and mixed well with 50 μL of DMSO before and after the administration) for testing.
The drug was administered according to the above dosage, the time of administration were recorded, and 20 μL of blood was collected from the mouse femoral plexus at the above set time point and placed in a heparinized test tube and centrifuged immediately at 11000 rpm for 5 min. 10 μL of plasma was immediately and accurately drawn into a centrifuge tube pre-filled with 100 μL of PK-IS solution (prepared with methanol:acetonitrile (1:1, v/v)), mixed well, and frozen to store at −20° C. for testing.

[3] = In vivo safety: body weight of mice during 7 days of intraperitoneal administration; design: species or system Balb/c mice; conditions: 100 mg/kg i.p. once a day for 7 consecutive days
Protocol: Next, we further evaluated the safety of compound A13 in mice. The mice in the drug group (100 mg/kg) and the DMSO control group were administered intraperitoneally, once a day, for 7 consecutive days, and then the growth status and weight changes of the mice in each group were observed.

[4] = system: HCoV-229E pseudovirus; experiment: microbe, parasite or virus in culture; type: cell-based; conditions: Human coronavirus 229E, read-out: viral inhibitory effect, HCoV-229E pseudovirus
[5] = system: HCoV-OC43 live virus
[6] = system: Huh-7 cells
[7] = system: MERS-CoV pseudovirus; experiment: microbe, parasite or virus in culture; type: cell-based; conditions: Middle East respiratory syndrome-related coronavirus, Huh-7; 100 nM; read-out: viral inhibitory effect, MERS-CoV pseudovirus
[8] = system: SARS-CoV pseudovirus; experiment: microbe, parasite or virus in culture; type: cell-based; conditions: Severe acute respiratory syndrome coronavirus; 100 nM; read-out: viral inhibitory effect, SARS-CoV pseudovirus
[9] = system: VSV-G pseudovirus; type: cell-based
[10] = i.p. (20 mg/Kg per Table 3), Mean of 3 mice
[11] = i.p. (20 mg/Kg per Table 3), individual animal, 20 mg/kg
[12] = i.v. 10 mg/Kg, individual animal, 10 mg/kg
[13] = male, CD-1, mouse, plasma, ip, 20 mg/kg, i.p. (20 mg/Kg per Table 3), individual animal
[14] = p.o. (gavage 20 mg/Kg per Table 3), Mean of 3 mice
[15] = p.o. (gavage 20 mg/Kg per Table 3), individual animal, 20 mg/kg

## O=C(NCc1ccccc1)C(=O)[C@H](C[C@@H]1CCCNC1=O)NC(=O)[C@H](CC1CCCCC1)NC(=O)c1cc2ccccc2o1 [Example A13]
[1]
  CC50: > 100000 nM
[2]; [10]
  AUC INF_obs: 7635 ng·h/mL
  AUC last (exposure for intraperitoneal injection): 7298 ng·h/mL
  C max: 3270 ng/mL
  MRT INF_obs: 5.34 h
  T1/2: 5.77 h
[2]; [11]
  AUC INF_obs: 7708 ng·h/mL and 8196 ng·h/mL
  AUC last: 7304 ng·h/mL and 8077 ng·h/mL
  C max: 3583 ng/mL and 3372 ng/mL
  MRT INF_obs: 6.69 h and 6.05 h and 3.28 h
  T1/2: 5.90 h and 4.94 h
  T max: 0.250 h and 0.050 h
[2]; i.v. 10 mg/Kg, Mean of 3 mice
  AUC INF_obs: 2976 ng·h/mL
  AUC last: 2896 ng·h/mL
  Cl_obs: 62.5 mL/min/kg
  MRT INF_obs: 1.88 h
  T1/2: 3.34 h
  VSS_obs: 6.419 L/kg
[2]; [12]
  AUC INF_obs: 3411 ng·h/mL and 1773 ng·h/mL and 3745 ng·h/mL
  AUC last: 3300 ng·h/mL and 1734 ng·h/mL and 3652 ng·h/mL
  Cl_obs: 48.9 mL/min/kg and 94.0 mL/min/kg and 44.5 mL/min/kg
  MRT INF_obs: 3.11 h and 1.13 h and 1.40 h
  T1/2: 6.09 h and 2.07 h and 1.87 h
  VSS_obs: 9.132 L/kg and 6.389 L/kg and 3.736 L/kg
[2]; male, CD-1, mouse, plasma, intraperitoneal, i.p. 20 mg/Kg vs i.v. 10 mg/Kg
  bioavailability: 126%
[2]; male, CD-1, mouse, plasma, ip, 20 mg/kg, i.p. (20 mg/Kg per Table 3), Mean of 3 mice
  Tmax: 0.183 h
[2]; [13]
  Cmax: 2860 ng/mL
  half-life: 6.46 h
[2]; male, CD-1, mouse, plasma, ip, 20 mg/kg, i.p. (20 mg/Kg per Table 3), individual animal, read-out: AUC INF_obs
  AUC(0-inf): 7000 ng·h/mL
[2]; male, CD-1, mouse, plasma, ip, 20 mg/kg, i.p. (20 mg/Kg per Table 3), individual animal, read-out: AUC last
  AUC(0-t): 6510 ng·h/mL
[2]; male, CD-1, mouse, plasma, oral, p.o. 20 mg/Kg vs i.v. 10 mg/Kg
  bioavailability: 7.99%
[2]; [14]
  AUC INF_obs: 488 ng·h/mL
  AUC last (oral exposure): 463 ng·h/mL
  C max: 290 ng/mL
  MRT INF_obs: 2.11 h
  T1/2: 1.32 h
  T max: 0.250 h
[2]; p.o. (gavage 20 mg/Kg per Table 3), individual animal
  T max: 0.250 h
[2]; [15]
  AUC INF_obs: 700 ng·h/mL and 499 ng·h/mL and 263 ng·h/mL
  AUC last: 690 ng·h/mL and 458 ng·h/mL and 241 ng·h/mL
  C max: 493 ng/mL and 259 ng/mL and 118 ng/mL
  MRT INF_obs: 1.37 h and 3.08 h and 1.88 h
  T1/2: 0.619 h and 2.15 h and 1.18 h
[3]
  body weight change versus control group: no difference of the body weight
[4]
  inhibition at 0.1 µM: ~90%
[5]; 1 μM, HCT-8 cells
  Inhibition of HCoV-OC43 infection and CPE: effectively block the virus infection
[5]; Betacoronavirus 1, OC43, HCT-8, read-out: IC50 against HCoV-OC43 live virus infection
  IC50: 86 nM
[5]; HCT-8 cells, HCoV-OC43
  protective effect on target cells (CPE) at different concentrations: obviously dose-dependent
[6]
  CC50 relative to the detection dose: more than 1000 times
[7]
  inhibition at 0.1 µM: ~90%
[8]
  inhibition at 0.1 µM: ~90%
[9]
  inhibitory effect on VSV-G-mediated pseudovirus infection: did not show an effective inhibitory effect

Reference: US12152017B2, “Ketoamide compound and preparation method, pharmaceutical composition, and use thereof” (Shanghai Institute of Materia Medica, Chinese Academy of …, priority 2018, dated 2024)
